Laboratory results taken from PMC4589318, “Synthesis of Triazole Schiff’s Base Derivatives and Their Inhibitory Kinetics on Tyrosinase Activity” (PLoS ONE, 2015).

What was measured:
[1] = ABTS free-radical scavenging antioxidant assay; conditions: absorbance at 734 nm
Experimental: ABTS free-radical scavenging assay was used to test the antioxidant capacity of compounds Y1 to Y4. The method can be found in many articles. 7 mM ABTS and 2.45 mM ammonium persulfate were blended and stored in a dark place 16 hours, and then diluted by 80% ethanol to obtain the working solution which gave an absorbance of 0.69 at 734 nm. The working solution and compounds were mixed and allowed to react for ten minutes, and then measured the absorbance at 734 nm (AI) was measured using spectrophotometer. L-ascorbic acid and 80% ethanol was used as a positive and blank control, respectively. The A0 value was the blank absorbance. The antioxidant rate (%) = (A0-AI)/A0 * 100%

[2] = target: T1, tyrosinase (Agaricus bisporus, UniProt C7FF04); assay: Fluorescence quenching of tyrosinase; assay type: binding, mushroom; conditions: 0.3 mg/ml tyrosinase, excitation 280 nm, inhibitor 10 to 70 μM
T1 construct: purchased Sigma Chemical Co. (St. Louis, MO, USA); host or cells: mushroom (natural source)
T1 sequence (C7FF04 1-392 limits assumed): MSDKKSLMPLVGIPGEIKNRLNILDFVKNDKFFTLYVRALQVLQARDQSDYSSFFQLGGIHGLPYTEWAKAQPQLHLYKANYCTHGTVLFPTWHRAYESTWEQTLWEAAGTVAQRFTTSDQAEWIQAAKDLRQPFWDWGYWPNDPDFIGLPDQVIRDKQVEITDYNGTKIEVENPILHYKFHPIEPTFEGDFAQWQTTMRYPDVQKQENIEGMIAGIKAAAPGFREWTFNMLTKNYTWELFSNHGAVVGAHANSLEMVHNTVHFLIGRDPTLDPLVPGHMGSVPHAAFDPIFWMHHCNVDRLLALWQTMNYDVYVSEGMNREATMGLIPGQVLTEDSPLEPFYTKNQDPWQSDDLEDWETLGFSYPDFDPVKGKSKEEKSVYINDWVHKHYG
Experimental: Fluorescence quenching means the decrease of fluorescence intensity between the fluorescent molecules and solute molecules. This method was usually used to study the interaction between conformation of protein molecules and small molecules. Cary Eclipse fluorescence spectrophotometer was used to record the fluorescence intensities with an excitation wavelength of 280 nm and emission slit widths of 5 nm. […] In this study, the inhibitor was added in 0.3 mg/ml tyrosinase solution to detect the fluorescence intensity changes and the final concentrations of inhibitor range from 10 to 70 μM.
Fluorescence quenching can be divided into static quenching and dynamic quenching. Dynamic quenching is a process, which has energy or electron transfer, while the static quenching process will generate complexes without fluorescence. The quenching rate between the fluorescent molecules and quenching agents followed the Stem.Volmer curve equation [43]: F0/F=1+KSV[Q]
In the formula, F0 is the intensity of fluorescence without quenching agent, F is the fluorescence intensity after adding quencher, Ksv (L/mol) represents the relationship of dynamic equilibrium between biological macromolecules and fluorescence quencher molecules after diffusing and colliding, and [Q] is the concentration of quencher. From Fig 4D, the Ksv of Y1, Y2 and Y3 was determined to be 94437, 7160983 and 159186 L/mol, respectively.

[3] = target: mushroom tyrosinase (Agaricus bisporus, UniProt C7FF04); assay: Diphenolase activity of mushroom tyrosinase (L-DOPA substrate); assay type: biochemical; conditions: for Inhibition type: Lineweaver-Burk plots; for Inhibition type / KIS (inhibitor bonding with enzyme-substrate complex) / K IS (Table 1) / Inhibitory mechanisms: diphenolase; for KIS (inhibitor bonding with enzyme-substrate complex) / K IS (Table 1): L-DOPA; for KIS (inhibitor bonding with enzyme-substrate complex): secondary plot of intercepts; for K IS (Table 1): unit not given; for Inhibitory mechanisms: residual activity vs enzyme concentration
Chain of mushroom tyrosinase (C7FF04 1-392): as the sequence (C7FF04 1-392 limits assumed) above
Experimental: L-Tyr and L-DOPA were used as the substrate to test the monophenolase and diphenolase activities of tyrosinase, respectively. The reaction system (3 ml) contained 1.1 mM L-Tyr or 0.5 mM L-DOPA, 25 mM PBS buffer (pH 6.8) and different concentrations of the inhbitors. For monophenolase and diphenolase activities, the final concentration of tyrosinase was 33.3μg/ml and 6μg/ml, respectively. The increased optical density with the oxidation of the substrates at 475 nm (the absorption coefficient was 3700 M^−1cm^−1) within a certain time were measured by DU800 spectrophotometer. […] The Michaelis-Menten constant Km of tyrosinase was determined by Lineweaver-Burk plot with different concentrations of L-DOPA as substrate and the inhibition constants KI and KIS were determined by the secondary plots of the apparent Km/Vm or 1/Vm versus the concentration of the inhibitors. The inhibition mechanism was reflected by the […] with various concentrations of mushroom tyrosinase.

Structure (SMILES)	antioxidant capacity rank order [1]	Ksv (Stern-Volmer quenching constant) [2] [L/mol]	Inhibition type [3]	KIS (inhibitor bonding with enzyme-substrate complex) [3] [µM]	K IS (Table 1) [3]	Inhibitory mechanisms [3]	antityrosinase activity (diphenolase screen) ([3]; L-DOPA substrate)
NNc1nnc(S)n1N [AHMZ, 4-Amino-3-hydrazino-5-mercapto-1,2,4-triazole, reference compound]	Y1 > Y2 > Y3 > Y4 > Vc > AHMZ						
Nn1c(S)nnc1N/N=C\c1cccc(F)c1 [Compound Y1, (Z)-4-amino-5-(2-(3-fluorobenzylidene)hydrazinyl)-4H-1,2,4-triazole-3-thiol]	Y1 > Y2 > Y3 > Y4 > Vc > AHMZ	94437	Mixed	4	4	Reversible	
Oc1cccc(/C=N\Nc2nnc(S)n2/N=C/c2cccc(O)c2)c1 [Compound Y4, 3-((Z)-(2-(4-(((E)-3-hydroxybenzylidene)amino)-5-mercapto-4H-1,2,4-triazol-3-yl)hydrazono)methyl)phenol]	Y1 > Y2 > Y3 > Y4 > Vc > AHMZ						almost do not have antityrosinase activity
Nn1c(S)nnc1N/N=C\c1cccc(O)c1 [Compound Y2, (Z)-3-((2-(4-amino-5-mercapto-4H-1,2,4-triazol-3-yl)hydrazono)methyl)phenol]	Y1 > Y2 > Y3 > Y4 > Vc > AHMZ		Mixed	27.8	28	Reversible	
Nn1c(S)nnc1N/N=C\c1ccccc1O [Compound Y3, (Z)-2-((2-(4-amino-5-mercapto-4H-1,2,4-triazol-3-yl)hydrazono)methyl)phenol]	Y1 > Y2 > Y3 > Y4 > Vc > AHMZ	159186	Mixed	21.04	21.04	Reversible	
O=C1O[C@H]([C@@H](O)CO)C(O)=C1O [Vc, L-ascorbic acid, reference compound]	Y1 > Y2 > Y3 > Y4 > Vc > AHMZ						
